Drawing on paper PMC10342075, “Blunting Neuroinflammation by Targeting the Immunoproteasome with Novel Amide Derivatives” (International Journal of Molecular Sciences, 2023), this text covers IC50 for 2 compounds.

By IC50 is commonly meant the concentration at which inhibition is half-maximal. A higher IC50 goes with weaker potency in that assay.

The target of experiment [1] is T1, β5c subunit of 20S proteasome (Homo sapiens, UniProt P28074).
T1 construct: gene PSMB5; human 20S proteasome isolated from human erythrocytes; with 20S proteasome (other subunits)
T1 sequence (P28074 60-263): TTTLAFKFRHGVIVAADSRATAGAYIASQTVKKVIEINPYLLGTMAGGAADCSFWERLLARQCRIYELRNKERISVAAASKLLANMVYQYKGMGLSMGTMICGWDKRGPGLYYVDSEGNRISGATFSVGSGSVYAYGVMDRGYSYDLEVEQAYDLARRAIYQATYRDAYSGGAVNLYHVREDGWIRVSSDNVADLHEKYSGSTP
Nature of the experiment: fluorogenic Suc-Leu-Leu-Val-Tyr-AMC hydrolysis (chymotrypsin-like activity) with purified human […] proteasome. It is filed as biochemical.

Experiment [2] deals with T2, β5i subunit of 20S immunoproteasome (LMP7) (Homo sapiens, UniProt P28062).
T2 construct: gene PSMB8; human 20S immunoproteasome isolated from human spleen; with 20S immunoproteasome (other subunits)
T2 sequence (P28062 73-276): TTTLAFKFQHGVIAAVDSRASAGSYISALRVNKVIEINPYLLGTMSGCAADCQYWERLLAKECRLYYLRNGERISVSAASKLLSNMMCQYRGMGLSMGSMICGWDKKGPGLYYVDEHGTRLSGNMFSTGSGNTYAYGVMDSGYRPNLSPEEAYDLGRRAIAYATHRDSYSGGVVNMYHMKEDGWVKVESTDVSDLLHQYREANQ
The experiment in a line: fluorogenic Suc-Leu-Leu-Val-Tyr-AMC hydrolysis (chymotrypsin-like activity) with purified human […] immunoproteasome. It is filed as biochemical.

In the case of `O=C(NCc1ccccc1)[C@H](Cc1ccccc1)n1ccccc1=O` [KJ9], the IC50 came to 6.9 ± 0.18 µM in experiment [1] and 16.5 ± 0.35 µM in experiment [2].

Compound `O=C(NCCc1ccccc1)[C@H](CCc1ccccc1)n1ccccc1=O` [KJ3] displayed an IC50 in experiment [2] of 7.61 ± 0.76 µM.
